These are literature values, as cited in patent US20220387435A1, “USE OF MULTI-TARGET PROTEIN KINASE INHIBITOR” (CSPC Zhongqi Pharmaceutical Technology (Shijiazhuang) Co., …, priority 2019, published 2022).

“Also recorded” adds a separate entry of the source. Bounds are passed on as bounds.

The subject of series [1] is AML patients. The following applies: cited from earlier work; for Main toxicity: similar products, prior art.
In series [2] the test system is AML patients. Particulars: cited from earlier work; for CR rates in monotherapy for R/R AML: Sorafenib 400 mg BID, Midostaurin 50 mg BID, Quizartinib 30-60 mg QD, Gilteritinib 120 mg QD.
In the next series the test system is FLT3-TKD mutation. Particulars: similar products, prior art; cited from earlier work.
The mark [3] stands for this setting: 120 mg daily, N = 246, ADMIRAL trial.
The mark [4] stands for this setting: phase 3 clinical trial of Gilteritinib.
The mark [5] stands for this setting: phase 3 clinical trial of Quizatinib.
Setting [6] is: phase II trial of oral Quizartinib, relapsed/refractory AML.
[7] abbreviates: phase II trial of oral Quizartinib.

For `CCc1nc(C(N)=O)c(Nc2ccc(N3CCC(N4CCN(C)CC4)CC3)c(OC)c2)nc1NC1CCOCC1` [Gilteritinib], in the series with AML patients [1] (setting [3]), the “Most common ADRs of grade ≥ 3: Anemia” value is 100 (40.7%), the “Most common ADRs of grade ≥ 3: Febrile neutropenia” value is on record as 113 (45.9%) and the “Most common ADRs of grade ≥ 3: Thrombocytopenia” value is on record as 56 (22.8%). Also, in the series on AML patients [1] (120 mg daily, N = 292), the “Cardiotoxicity ADR: Cardiac failure” value is 4%, the “Cardiotoxicity ADR: Pericardial effusion” value is given as 3%, the “Cardiotoxicity ADR: Pericarditis” value is reported as 2% and the “Cardiotoxicity ADR: QT interval prolongation” value is reported as 8.4%. Moreover, in the series on AML patients [1] (setting [4]), the “incidence of ALT elevation of all grades” value was 26.3%, the “incidence of ALT elevation of grade ≥3” value is listed as 12.9%, the “incidence of AST elevation of all grades” value is on record as 80.6% and the “incidence of QT interval prolongation of all grades” value is recorded as 8.8%. The “incidence of QT interval prolongation of grade ≥3” value in the series on AML patients [1] (setting [4]) is reported as 2.5%. The Main toxicity result in the series with AML patients [1] was “Transaminase; also recorded: diarrhea”.

With `CO[C@@H]1[C@H](N(C)C(=O)c2ccccc2)C[C@H]2O[C@]1(C)n1c3ccccc3c3c4c(c5c6ccccc6n2c5c31)C(=O)NC4` [Midostaurin], in the series with AML patients [1], the Main toxicity result was “Gastrointestinal; also recorded: myelosuppression”.

For `CC(C)(C)c1cc(NC(=O)Nc2ccc(-c3cn4c(n3)sc3cc(OCCN5CCOCC5)ccc34)cc2)no1` [Quizartinib], in the series on AML patients [1] (setting [5]), the “serious hematological adverse reaction: anemia” value is 25.9%, the “serious hematological adverse reaction: cytopenia” value is given as 2.5%, the “serious hematological adverse reaction: febrile neutropenia” value was 15.8% and the “serious hematological adverse reaction: leukopenia” value is recorded as 18.0%. Further, in the series on AML patients [1] (setting [5]), the “serious hematological adverse reaction: lymphopenia” value is given as 4.0%, the “serious hematological adverse reaction: neutropenia” value is 25.9% and the “serious hematological adverse reaction: thrombocytopenia” value is listed as 34.2%. In addition, in the series with AML patients [1] (setting [6]), the “adverse reaction: anemia” value is listed as 29%, the “adverse reaction: diarrhea” value is given as 20%, the “adverse reaction: fatigue” value was 20% and the “adverse reaction: febrile neutropenia” value is on record as 25%. Further, in the series on AML patients [1] (setting [6]), the “adverse reaction: nausea” value was 38% and the “adverse reaction: vomiting” value is 26%. Also, in the series on AML patients [1] (setting [7]), the dose-limiting toxicity response result is “QT prolongation of Grade 3” and the “patients discontinuing the treatment due to adverse events” value was 10%. The Main toxicity entry with AML patients [1] is on record as “QTinterval; also recorded: myelosuppression”. The CR in the series on AML patients [2] (Quizatinib Japan phase 2 53 mg 26 cases, prior lines not limited) is on record as 0 cases. Also, in the series with AML patients [2], the “CR rates in monotherapy for R/R AML” value was 24-47%.

For `CNC(=O)c1cc(Oc2ccc(NC(=O)Nc3ccc(Cl)c(C(F)(F)F)c3)cc2)ccn1` [Sorafenib], the Main toxicity entry in the series on AML patients [1] was “Rash, bleeding,; also recorded: myelosuppression”. In addition, the “CR rates in monotherapy for R/R AML” value in the series with AML patients [2] was below 10%. Also, the FLT3-TKD mutation activity entry in the series with FLT3-TKD mutation is recorded as “No”.
